Read-outs that look alike come from different tables or passages of the source.
Legend:
Japanese pear “Kousui” [1] = test system: Japanese pear “Kousui”
Method: Regarding the sugar concentration of fruits, the sugar content (Brix) of the fruits harvested on August 24 of the year. The content of the individual sugar species was measured by selecting 10 fruits from each section to obtain fruit juices prepared by pressing the fruits, filtering each juice with a membrane filter having a 0.45 μm diameter, and then, quantifying the sugar content for every sugar species by HPLC (Column: “Shim-pack SCR-101C”, Column temperature: 80° C., Solvent: water (1 mL/min); and Detector: RI).

Japanese pear “Kousui” [2] = test system: Japanese pear “Kousui”; remark: listed apart in the source
Japanese pear “Kousui” [3] = conditions: average Score (+3 to −3) of sprayed product, non-sprayed product = Score 0
Method: In this connection, the scores of the sprayed product shown in Table 5 were counted by the following way. I.e., this was carried out in a paired comparison method where the “non-sprayed product” was assigned to Score 0 (control), and the “sprayed product” was scored by 7-class evaluation consisting of Scores +3, +2, +1, 0, −1, −2, and −3, employing a plurality of panels. Next, average values of the results of scoring the “sprayed product” by the plurality of panels were calculated and the average values were assigned to the Scores of the “sprayed product” in Table 5.

[4] = test system: adult grape tree (cultivar Cabernet sauvignon)
Method: The aqueous proline solution, which had been prepared by dissolving the high purity proline as described above into water to provide a 200 ppm concentration and adding 10 mL of “ATLOX BI” (wetting agent) thereto, was sprayed on the adult grape tree (cultivar Cabernet sauvignon) with an interval of 15 days during the period from the end of June to the middle of September in a year, which is the véraison period as the fruit growing period.
The sprayed amount was a certain amount to allow the solution to drop down from the leaf surfaces. The control section was assigned to another non-sprayed adult tree. Both the test section and the control section were harvested on October 25 in that year to analyze sweetness and a red-colored state. Sweetness was evaluated in terms of the sugar content (Brix) of a juice prepared by mixing and pulverizing seed-removed fruits and pericarps. Colored state (red) was evaluated by measuring a light absorbance of the juice at 522 nm.
According to the market evaluation for a grape cultivar for red wine and a red grape cultivar such as Kyohou, the stronger the coloration (red) of the pericarp is, the better the quality is.

Japanese pear “Kousui” [5] = conditions: observed on February 5
Method: The flower bud differentiation rate was surveyed by observing winter buds with the unaided eye for each of long fruiting branches and short fruiting branches for every section on February 5 of the next year. The flower bud differentiation rate was calculated as a proportion of the flower bud number (mixed flower buds) to the total winter bud number, provided that the last-year branch was regarded as 1 unit, to which branch a long fruiting branch or a short fruiting branch attached.

[6] = pear fruit juice, harvested on August 24, HPLC, n = 10
[7] = grape juice, harvested October 25, 200 ppm proline sprayed every 15 days

O=C(O)[C@@H]1CCCN1 [proline, L-proline]
Fructose content in the fruits (Japanese pear “Kousui” [1]; [6]): 56.74 mg/mL | Glucose content in the fruits (Japanese pear “Kousui” [1]; [6]): 18.67 mg/mL | Sorbitol content in the fruits (Japanese pear “Kousui” [1]; [6]): 28.83 mg/mL | Sucrose content in the fruits (Japanese pear “Kousui” [1]; [6]): 62.09 mg/mL | Total individual sugar contents in the fruits (Japanese pear “Kousui” [1]; [6]): 166.12 mg/mL | Sugar content (Brix) (Japanese pear “Kousui” [1]; pear fruits harvested on August 24, 200 ppm proline sprayed): 11.7 ± 0.1 Brix | pericarp color (Japanese pear “Kousui” [1]; pear fruits harvested on August 24, proline-treated section): somewhat red pericarp | drug damage caused by spraying (Japanese pear “Kousui” [2]; Japanese pear “Kousui”, 200 ppm proline sprayed on leaves): any drug damage caused by spraying has not been observed | Harvested number of pears (Japanese pear “Kousui” [2]; Total of all fruit sizes, Total of harvest days, 200 ppm proline sprayed on leaves): 638 | Harvested number of pears (Japanese pear “Kousui” [2]; Total of all fruit sizes, harvest day August 18, 200 ppm proline sprayed on leaves): 130 | Harvested number of pears (Japanese pear “Kousui” [2]; Total of all fruit sizes, harvest day August 21, 200 ppm proline sprayed on leaves): 185 | Harvested number of pears (Japanese pear “Kousui” [2]; Total of all fruit sizes, harvest day August 24, 200 ppm proline sprayed on leaves): 323 | Harvested number of pears (Japanese pear “Kousui” [2]; fruit size 2L, Total of harvest days, 200 ppm proline sprayed on leaves): 115 | Harvested number of pears (Japanese pear “Kousui” [2]; fruit size 2L, harvest day August 18, 200 ppm proline sprayed on leaves): 33 | Harvested number of pears (Japanese pear “Kousui” [2]; fruit size 2L, harvest day August 21, 200 ppm proline sprayed on leaves): 46 | Harvested number of pears (Japanese pear “Kousui” [2]; fruit size 2L, harvest day August 24, 200 ppm proline sprayed on leaves): 36 | Harvested number of pears (Japanese pear “Kousui” [2]; fruit size 3L, Total of harvest days, 200 ppm proline sprayed on leaves): 233 | Harvested number of pears (Japanese pear “Kousui” [2]; fruit size 3L, harvest day August 18, 200 ppm proline sprayed on leaves): 46 | Harvested number of pears (Japanese pear “Kousui” [2]; fruit size 3L, harvest day August 21, 200 ppm proline sprayed on leaves): 64 | Harvested number of pears (Japanese pear “Kousui” [2]; fruit size 3L, harvest day August 24, 200 ppm proline sprayed on leaves): 123 | Harvested number of pears (Japanese pear “Kousui” [2]; fruit size 4L, Total of harvest days, 200 ppm proline sprayed on leaves): 160 | Harvested number of pears (Japanese pear “Kousui” [2]; fruit size 4L, harvest day August 18, 200 ppm proline sprayed on leaves): 25 | Harvested number of pears (Japanese pear “Kousui” [2]; fruit size 4L, harvest day August 21, 200 ppm proline sprayed on leaves): 32 | Harvested number of pears (Japanese pear “Kousui” [2]; fruit size 4L, harvest day August 24, 200 ppm proline sprayed on leaves): 103 | Harvested number of pears (Japanese pear “Kousui” [2]; fruit size 5L, Total of harvest days, 200 ppm proline sprayed on leaves): 31 | Harvested number of pears (Japanese pear “Kousui” [2]; fruit size 5L, harvest day August 18, 200 ppm proline sprayed on leaves): 0 | Harvested number of pears (Japanese pear “Kousui” [2]; fruit size 5L, harvest day August 21, 200 ppm proline sprayed on leaves): 4 | Harvested number of pears (Japanese pear “Kousui” [2]; fruit size 5L, harvest day August 24, 200 ppm proline sprayed on leaves): 27 | Harvested number of pears (Japanese pear “Kousui” [2]; fruit size L, Total of harvest days, 200 ppm proline sprayed on leaves): 55 | Harvested number of pears (Japanese pear “Kousui” [2]; fruit size L, harvest day August 18, 200 ppm proline sprayed on leaves): 19 | Harvested number of pears (Japanese pear “Kousui” [2]; fruit size L, harvest day August 21, 200 ppm proline sprayed on leaves): 18 | Harvested number of pears (Japanese pear “Kousui” [2]; fruit size L, harvest day August 24, 200 ppm proline sprayed on leaves): 18 | Harvested number of pears (Japanese pear “Kousui” [2]; fruit size M, Total of harvest days, 200 ppm proline sprayed on leaves): 20 | Harvested number of pears (Japanese pear “Kousui” [2]; fruit size M, harvest day August 18, 200 ppm proline sprayed on leaves): 0 | Harvested number of pears (Japanese pear “Kousui” [2]; fruit size M, harvest day August 21, 200 ppm proline sprayed on leaves): 11 | Harvested number of pears (Japanese pear “Kousui” [2]; fruit size M, harvest day August 24, 200 ppm proline sprayed on leaves): 9 | Harvested number of pears (Japanese pear “Kousui” [2]; fruit size S, Total of harvest days, 200 ppm proline sprayed on leaves): 24 | Harvested number of pears (Japanese pear “Kousui” [2]; fruit size S, harvest day August 18, 200 ppm proline sprayed on leaves): 7 | Harvested number of pears (Japanese pear “Kousui” [2]; fruit size S, harvest day August 21, 200 ppm proline sprayed on leaves): 10 | Harvested number of pears (Japanese pear “Kousui” [2]; fruit size S, harvest day August 24, 200 ppm proline sprayed on leaves): 7 | ripening of fruits (fruit number for every harvest day) (Japanese pear “Kousui” [2]; proline-treated section vs control section): fruits ripened earlier as a tendency | Apparent color (Japanese pear “Kousui” [3]): 0.06 | Comprehensive evaluation (Japanese pear “Kousui” [3]): 0.74 | Hardness (Japanese pear “Kousui” [3]): −0.13 | Juiciness (Japanese pear “Kousui” [3]): 0.02 | Preferableness of sourness (Japanese pear “Kousui” [3]): −0.06 | Preferableness of sweetness (Japanese pear “Kousui” [3]): 0.43 | Preferableness of whole aroma (Japanese pear “Kousui” [3]): 0.64 | Preferableness of whole feeling upon eating (Japanese pear “Kousui” [3]): 0.31 | Preferableness of whole flavor (Japanese pear “Kousui” [3]): 0.50 | Preferableness of whole taste (Japanese pear “Kousui” [3]): 0.61 | Strength of sourness (Japanese pear “Kousui” [3]): −0.19 | Strength of sweetness (Japanese pear “Kousui” [3]): 0.95 | Strength of whole aroma (Japanese pear “Kousui” [3]): 0.26 | Strength of whole flavor (Japanese pear “Kousui” [3]): 0.57 | Strength of whole taste (Japanese pear “Kousui” [3]): 0.79 | Tongue feeling (Japanese pear “Kousui” [3]): −0.19 | Unripe flavor (Japanese pear “Kousui” [3]): −0.41 | Colored degree (OD at 522 nm) [4, 7]: 0.14 OD at 522 nm | Sugar content (Brix) [4, 7]: 20.3 Brix | increment of anthocyanin content in the juice ([4]; grape juice, proline-sprayed section vs control section): about 20% | difference in the size of fruits ([4]; grape, proline-sprayed section vs control section): No difference | flower bud differentiation rate (Japanese pear “Kousui” [5]; long fruiting branch, Total): 39.83% | flower bud differentiation rate (Japanese pear “Kousui” [5]; long fruiting branch, Tree No. 1): 40.60% | flower bud differentiation rate (Japanese pear “Kousui” [5]; long fruiting branch, Tree No. 2): 39.05% | flower bud differentiation rate (Japanese pear “Kousui” [5]; short fruiting branch, Total): 39.38% | flower bud differentiation rate (Japanese pear “Kousui” [5]; short fruiting branch, Tree No. 1): 40.83% | flower bud differentiation rate (Japanese pear “Kousui” [5]; short fruiting branch, Tree No. 2): 37.93%

Reference: US20040209777A1, “Agents for improving the qualities of fruits/grains” (priority 2001, published 2004)
